# Values of other authors, collected in US20120108429A1, “SAFENED AND EFFICACIOUS WEED CONTROL PARTICLE” (The Andersons, Inc., priority 2010, published 2012).
# System: pentas and hemerocallis
# Conditions: application of the herbicide
smiles,measurement,value
C#CCN1C(=O)COc2cc(F)c(N3C(=O)C4=C(CCCC4)C3=O)cc21 [flumioxazin],effect on growth of ornamental plants,inhibited from properly growing
